The values that follow come from ChEMBL document CHEMBL1130560, “Kinetic studies of the reaction of S-nitroso-L-cysteine with L-cysteine” (Bioorg Med Chem Lett, 1997).

The series in a line: First order rate constant for spontaneous decomposition. The series is classed as ADME.

`N[C@@H](CSN=O)C(=O)O` gave a Rate constant of 0.0000146 s⁻¹.
